Results: patent US5106870A, “Methods for the use of thromboxane A2 antagonists” (National Research Development Corporation, priority 1990, dated 1992)

Columns and labels:
[1] = tested on: U-46619-induced platelet aggregation; assay: Inhibition of U-46619-induced platelet aggregation in rat platelet rich plasma (in vitro); format: cell-based; settings: rat PRP
Protocol: a. Inhibition of U-46619-induced platelet aggregation (rat)
Platelet rich plasma (PRP) was prepared from heparanized whole blood (5 units/ml) drawn from the abdominal aorta of ether anesthetized rats. PRP was prepared by centrifugation (Sorvall RC2B, DuPont, Wilmington, Del.) of the whole blood at 150×g for 10 min. Platelet poor plasma (PPP) was prepared by centrifugation at 1200×g for 20 min. Aliquots of PRP and PPP were used to standardize the aggregometer (Payton, Buffalo, N.Y., model 300B) with the recorder (Riken Denshi 2 channel recorder, Payton, model SP-H5P) for measurement of minimum and maximum light transmittance, respectively.
Platelet aggregation was measured as an increase in light transmittance. PRP (390 μl aliquot +5 μl compound vehicle) was preincubated for 1 min. at 37° C., with stirring at 900 rpm in the aggregometer. The vehicle control response was obtained by adding U-46619 (Cayman Chemical, Ann Arbor, Mich., 1-2 units/cuvette/10 μl) to the aliquot of PRP. Aggregation was monitored until maximum aggregation was achieved (approximately 3 min. following the addition of U-46619). Amount of aggregation was measured by grids on the strip chart.
Compounds were dissolved in either ethanol (ETOH) or Na2 CO3 (0.1M) and preincubated at the desired concentration in PRP for 1 min. at 37° C. with stirring. At the end of the preincubation, U-46619 was added and aggregation measured. Inhibition of aggregation by compound was calculated as percent inhibition of the control aggregation response to U-46619. Dose response curves were generated and IC50 's calculated by linear regression.

[2] = tested on: U-46619 induced platelet aggregation; assay: Ex vivo inhibition of U-46619 induced platelet aggregation, intragastric; format: in vivo; settings: rat
Protocol: (§1) II. Ex vivo--(rat) Inhibition of U-46619 induced platelet aggregation
Compounds dissolved in Na Carbonate were administered to conscious rats with an I.G. tube. Fifteen minutes post administration (time previously determined to show maximum effect), rats were anesthetized with ether and blood was sampled from the abdominal aorta, PRP was prepared as described in II a.

[3] = tested on: U-46619 induced platelet aggregation; assay: Ex vivo inhibition of U-46619 induced platelet aggregation, intravenous; format: in vivo; settings: rat
Protocol: as §1
Rats were anesthetized with ether and the jugular vein exposed. Compound dissolved in 0.1M Na Carbonate was injected as a bolus into the jugular vein. Blood (5 ml, heparanized) was sampled 30 sec. later from the abdominal aorta. PRP was prepared by quick centrifugation (Eppendorf, model 5415 at 12,000 rpm for 5 sec. PPP was prepared by centrifugation for 2 min. PRP was diluted 1:1 with PPP from similarly treated animals. Aggregation was monitored for 5 min. and inhibition was determined as previously described.

human washed platelets = assay: Analysis of partial agonism (shape change/aggregation) in human washed platelets; format: cell-based; settings: 5 and 10 min incubation
Protocol: b. Analysis of partial agonism with SC-46985 (human washed platelets)
Sixty ml of blood were drawn into 1/10 volume of CCD (100 mM Na Citrate and 136 mM glucose, pH 6.5 with HCl) and PRP prepared as described above. PRP was placed on ice for 15 min. One half of the volume of CCD was added and recentrifuged. The platelet pellet was gently resuspended in 1/2 the original volume of PRP in a 0° C. modified Tangen-Hepes-BSA buffer (145 mM NaCl, 5 mM KCl, 0.05 mM CaCl2, 0.1 mM MgCl2, 11 mM glucose, 15 mM Hepes, 1 mg/ml bovine serum albumin, pH adjusted to 7.4 with NaOH). The resuspended platelets were incubated undisturbed at 37° C. for 30 min. After incubation a platelet count was determined and adjusted to 3×10^8 cells/ml with the Tangen-Hepes-BSA buffer.
425 μl of the washed human platelet suspension was incubated in the aggregometer in the presence of 16 mM CaCl2 (50 μl) and SC-46985 for 5 and 10 min. […] (In a study similar to (a) above, aliquots of human washed platelets were incubated with various concentrations of SC-46985 and U-46619 to determine dose-related inhibition of aggregation).

## CC(=NNC(=S)Nc1ccccc1)[C@@H]1[C@H]2CC[C@H](C2)[C@H]1C/C=C\CCCC(=O)O (relative stereo) [SC-44161, (±)7-[3α[[(Phenylamino)thioxomethyl]hydrazono]ethyl]1α,4α-bicyclo[2.2.1]hept-2β-yl]-5Z-heptenoic acid]
[1]; aqueous (Na Carbonate) vs ethanol
  more potent in aqueous solution than when dissolved in ethanol: 5-10 fold

## CC(=NNC(=S)Nc1ccccc1)[C@@H]1[C@H]2CC[C@H](C2)[C@H]1C/C=C\CCCC(=O)O [SC-46984, 7-[3α-[1-[[(Phenylamino)thioxomethyl]hydrazono]ethyl]-1R,1α,4α-bicyclo-[2.2.1]hept-2β-yl]-5Z-heptenoic acid]
[2]
  more potent than SC-44161 (I.G. ED50): approximately 2.8 times
[3]
  more potent than SC-44161 (ED50): approximately 3.5 times
[1]; in vitro
  more potent than SC-44161: approximately 100 times

## CC(=NNC(=S)Nc1ccccc1)[C@H]1[C@@H]2CC[C@@H](C2)[C@@H]1C/C=C\CCCC(=O)O [SC-46985]
Human washed platelets
  partial agonist activity (shape change or aggregation): no evidence of shape change or aggregation
[3]
  less potent than SC-44161 (ED50): approximately 1.5 times

## CC(=NNC(=S)Nc1ccccc1)[C@@H]1[C@H]2CC[C@H](C2)[C@H]1C/C=C/CCCC(=O)O [SC-47721, 7-[3α-[1-[[(Phenylamino)thioxomethyl]hydrazono]ethyl]-1R,1α,4α-bicyclo-[2.2.1]hept-2β-yl]-5E-heptenoic acid]
[2]; 1 mg/kg, 15 min post administration
  inhibition of U-46619 induced aggregation: 37.5%
[1]; in vitro
  more potent than SC-44161: 10-50 times
  potency compared with SC-46984: less potent than SC-46984
